The subject of assay [1] is Ileum. As to the kind of experiment: Inhibition of acetylcholine-induced contraction in guinea pig ileum at 0.28 to 2.8 uM preincubated for 5 mins before acetylcholine challenge. The format is functional, Cavia porcellus. More on the design: scale not given: the % may be the effect or the level left.
The subject of assay [2] is Ileum. As to the kind of experiment: Inhibition of acetylcholine-induced contraction in guinea pig ileum preincubated for 5 mins before acetylcholine challenge. Type of assay: functional, tissue-based, Cavia porcellus.

This is an account of results in ChEMBL document CHEMBL1151116, “In vitro study of the anticholinergic and antihistaminic activities of protopine and some derivatives” (J Nat Prod, 1988).

`C[N+]1([O-])CCc2cc3c(cc2C(=O)Cc2ccc4c(c2C1)OCO4)OCO3` (stereo not drawn): the Activity in assay [1] turned out to be 20%.
Consider `CN1[C@@H]2CC[C@H]1C[C@@H](OC(=O)C(CO)c1ccccc1)C2` (stereo partly drawn) [ATROPINE], for which the Kb in assay [2] (Cavia porcellus, Ileum, read-out: pA2 (converted)) was 2.04 nM.
For the compound `COc1ccc(Cc2nccc3cc(OC)c(OC)cc23)cc1OC` [PAPAVERINE], the pD2 in assay [2] is 5.08.
